In PubChem BioAssay AID504646 (Southern Research Specialized Biocontainment Screening …, 2011):
Values joined by “and” are separate entries in the source; they are usually repeats but may differ in a detail not shown here. Identical values can stand only once. Active and inactive are the calls of the source. The rule behind the calls is not given here. Peptide text beside a SMILES is read from it. * marks the point of attachment. Cbz = O=C(OCc1ccccc1)*

What was measured:
[1] = system: Mycobacterium tuberculosis growth in 7H9 media; assay: M. tuberculosis growth inhibition in 7H9, dose response, 7H9 media, purified and synthesized samples, set 3 (AID 504646); conditions: for IC90: 90% growth inhibition concentration
[2] = as above; conditions: Mycobacterium tuberculosis growth in 7H9 media; at 25 µM (top of the series)

Row | Structure (SMILES) | IC50 [1] | IC90 [1] | growth inhibition [2]
1 | O=C(/C=C\c1cccs1)N1CCN(Cc2ccc3c(c2)OCO3)CC1 | 940 nM | > 25000 nM | –
2 | COc1ccc(N2CCN(C(=O)c3ccc(CNc4c(N5CCOCC5)c(=O)c4=O)cc3)CC2)cc1 | 2160 nM | > 25000 nM | –
3 | Cc1cc(C)cc(NC(=O)CSc2nc3c(c(=O)[nH]2)CN(Cc2ccc(F)cc2)CC3)c1 | – | – | -0.33% (inactive)
4 | CCOC(=O)CSc1ncnc2c1cnn2-c1ccc(Cl)cc1 | 4320 nM | > 25000 nM | –
5 | CCOC(=O)N1CCC(Nc2c(N3CCN(c4cccc(C(F)(F)F)c4)CC3)c(=O)c2=O)CC1 | – | – | -1.75% (inactive)
6 | O=C1C(Br)=Cc2cccc3cccc1c23 | 160 nM | 790 nM | –
7 | COc1ccc(-n2nnc3c(SCC(=O)OCc4ccccc4)ncnc32)cc1 | 1630 nM | > 25000 nM | –
8 | O=C(CSc1nc2ccccc2c(=O)[nH]1)NC1CCCCC1 | 40 nM | 80 nM | –
9 | Cc1cccc(/C=C/C(=O)c2ccc([N+](=O)[O-])o2)c1 | 100 nM | 170 nM | –
10 | CCOC(=O)CSc1ncnc2c1nnn2-c1ccc(F)cc1 | 2460 nM | 4350 nM | –
11 | Cc1nc(SCC(=O)N(C)c2ccccc2)[nH]c(=O)c1C | – | – | -13.6% (inactive)
12 | S=c1nc[nH]c2nc[nH]c12 | 1380 nM | 1960 nM | –
13 | CCc1ccc(/C=C2/C(=O)N(C)C(=S)N2CC(=O)OC)s1 | 1120 nM | 4630 nM | –
14 | Cc1ccc(NC(=O)COC(=O)CCc2c[nH]c3ccccc23)cc1[N+](=O)[O-] | 1160 nM | 4230 nM | –
15 | Cc1cc(=O)[nH]c(=S)[nH]1 | – | – | -1.28% (inactive)
16 | O=C(CSc1ccccn1)NC1CCCCC1 | – | – | -4.91% (inactive)
17 | CC1CCCN(C(=O)c2ccc(CNc3c(N4CCCCC4)c(=O)c3=O)cc2)C1 (stereo not given) | 1390 nM | > 25000 nM | –
18 | CCOC(=O)c1ccc(NC(=O)Cn2ncc(Cl)c(Cl)c2=O)cc1 | 330 nM | 1200 nM | –
19 | Cc1cc(Br)ccc1NC(=O)c1cnc(N2CCN(c3ccccn3)CC2)c2ccccc12 | 280 nM | 2610 nM | –
20 | Cc1cccc(-c2oc3ccc(-c4ccc5c(c4)OCO5)cc3c2C#Cc2cncn2C)c1 | 1780 nM | 2690 nM | –
21 | Cc1nc(SCC(N)=O)[nH]c(=O)c1C | – | – | -2.97% (inactive)
22 | CC(C)CCNC(=O)CSc1nc2ccccc2c(=O)[nH]1 | 1190 nM | 2350 nM | –
23 | Cc1ccc(NC(=O)C2C3/C=C\CCCCC32)cc1C (stereo not given) | 1430 nM | > 25000 nM | –

Row | Structure (SMILES) | IC50 [1] | IC90 [1] | growth inhibition [2]
24 | Nc1cc(=O)[nH]c(SCC(=O)Nc2ccccc2-c2ccccc2)n1 | – | – | -1.58% (inactive)
25 | Cc1nn2c(NCc3ccccn3)cc(C(C)C)nc2c1-c1ccccc1 | 1220 nM | 1730 nM | –
26 | Cc1ccc(C(=O)N/N=C(/CC(=O)c2cccs2)C(F)(F)F)cc1 | 1560 nM | 2370 nM | –
27 | CC(NC(=O)CSc1nc2ccccc2c(=O)[nH]1)c1ccccc1 (stereo not given) | – | – | -9.84% (inactive)
28 | COC(=O)C(C)Oc1ccc(-c2nccc(-c3ccccn3)n2)cc1 (stereo not given) | 2110 nM | 4130 nM | –
29 | COC(=O)CSc1ncnc2c1cnn2-c1ccc(C)cc1C | 4720 nM | 7300 nM | –
30 | CC(=O)c1ccc(NC(=O)c2ccc(CNc3c(N4CCOCC4)c(=O)c3=O)cc2)cc1 | 12400 nM | > 25000 nM | –
31 | C=CCn1c(SCC(=O)Nc2cccc3ccccc23)nc(O)c(CC)c1=O | – | – | 26.9% (inactive)
32 | O=C(c1ccc(CNc2c(N3CCCC3)c(=O)c2=O)cc1)N1CC=C(c2ccccc2)CC1 | 2310 nM | > 25000 nM | –
33 | Cc1nc(SCc2ccccc2Cl)[nH]c(=O)c1C | – | – | -6.95% (inactive)
34 | O=C(CSc1ncccn1)NC1CCCCC1 | – | – | -5.77% (inactive)
35 | O=C(CSc1nc2ccccc2c(=O)[nH]1)NCc1ccc(Cl)cc1 | 380 nM and 1300 nM | 670 nM and 2020 nM | –
36 | CCC(Sc1ncnc2c1nnn2-c1ccc(F)cc1)C(=O)OC (stereo not given) | 9590 nM | > 25000 nM | –
37 | CC(C)NC(=O)c1sc(=S)n2c1[nH]c(=O)c1ccc(C(=O)NCCc3ccc(Cl)cc3)cc12 | 110 nM | 300 nM | –
38 | Cc1ccc2c(c1)c(C1=c3ccccc3=NC1=O)c(O)n2C | 840 nM | 3120 nM | –
39 | CC(C)OC(=O)CSc1ncnc2c1cnn2-c1ccccc1 | 10500 nM | > 25000 nM | –
40 | Cc1[nH]c(=S)[nH]c(=O)c1C | – | – | -8.11% (inactive)
41 | CCCc1cc(=O)[nH]c(SCC(=O)Nc2cc3c(cc2C(C)=O)OCO3)n1 | – | – | 3.07% (inactive)
42 | CCOC(=O)CSc1nc(C)c(C)c(=O)[nH]1 | – | – | -7.78% (inactive)
43 | CCOc1ccc2nc(NC(=O)C(CC)Sc3nc(C)cc(=O)[nH]3)sc2c1 (stereo not given) | – | – | 2.52% (inactive)
44 | CN(C(=O)CSc1nc2ccccc2c(=O)[nH]1)C1CCCCC1 | – | – | -6.94% (inactive)
45 | CCOC(=O)COn1c2c(c3c4no[n+]([O-])c4ccc31)CCCC2 | 1960 nM | 3170 nM | –
46 | CC1CCN(C(=O)CSc2nc3ccccc3c(=O)[nH]2)CC1 | – | – | 2.14% (inactive)

Row | Structure (SMILES) | IC50 [1] | IC90 [1] | growth inhibition [2]
47 | CC1CC(C)CN(C(=O)c2ccc(CNc3c(N4CCCC4)c(=O)c3=O)cc2)C1 (stereo not given) | 5140 nM | > 25000 nM | –
48 | O=C(NCC1COc2ccccc2O1)C1CCC(CNc2c(N3CCCCC3)c(=O)c2=O)CC1 (stereo not given) | – | > 25000 nM | –
49 | Nc1cc(=O)[nH]c(SCC(=O)Nc2ccc(Oc3ccccc3)cc2)n1 | – | – | -0.36% (inactive)
50 | COC(=O)c1ccc(CNc2c(N3CCCC3)c(=O)c2=O)cc1 | – | – | -13.4% (inactive)
51 | Cc1[nH]c2ccccc2c1C(=O)COC(=O)c1ccc([N+](=O)[O-])s1 | – | – | -5.99% (inactive)
52 | O=C(NCCc1ccc(Cl)cc1)C1CCC(CNc2c(N3CCCCC3)c(=O)c2=O)CC1 (stereo not given) | 20400 nM | > 25000 nM | –
53 | CC(=NCc1ccc2c(c1)OCO2)C1=C(O)c2ccccc2C1=O | 950 nM | > 25000 nM | –
54 | COC(=O)C(C)Oc1ccc(Cc2ncc(C(F)(F)F)cc2Cl)cc1 (stereo not given) | 2660 nM | 4350 nM | –
55 | CC1CCN(C(=O)C2CCN(c3nnc(-n4cccc4)s3)CC2)CC1 | 1550 nM | 2910 nM | –
56 | Cc1cc(C)n2nc(N)c(N=Nc3ccccc3)c2n1 | 2730 nM | 3690 nM | –
57 | CCOC1OC(=O)C(Cl)=C1Nc1ccccc1C (stereo not given) | 2310 nM | > 25000 nM | –
58 | Cc1ccc2ccc3ccc(C)nc3c2n1 | 180 nM | 480 nM | –
59 | CCc1c(C)nc(SCC(=O)Nc2ccc3c(c2)OCCO3)[nH]c1=O | 14100 nM | > 25000 nM | –
60 | O=C(/C=C/c1ccccc1)N1CCN(CCN2C(=O)c3cccc4cccc(c34)C2=O)CC1 | 2160 nM | 4970 nM | –
61 | CCOC(=O)CSc1ncnc2c1cnn2-c1ccccc1 | 11200 nM | > 25000 nM | –
62 | CCOC(=O)CSc1ncnc2c1cnn2-c1ccc(C)cc1 | 6950 nM | > 25000 nM | –
63 | O=C(CSc1nc2c(c(=O)[nH]1)CCC2)Nc1ccc(F)cc1 | 10000 nM | 17100 nM | –
64 | O=C(c1ccc(CNc2c(N3CCCC3)c(=O)c2=O)cc1)N1CCN(C2CCCCC2)CC1 | – | > 25000 nM | –
65 | Cc1cccc(N2CCN(C(=O)c3ccc(CNc4c(N5CCC(C)CC5)c(=O)c4=O)cc3)CC2)c1C | 24500 nM | > 25000 nM | –
66 | CCOC(=O)CSc1ncnc2c1cnn2-c1ccc(C)cc1C | 4630 nM | 7470 nM | –
67 | CCOC(=O)CNC(=O)[C@H](Cc1ccccc1)NC(=O)OCc1ccccc1 (Cbz-Phe-Gly-OEt) | 1060 nM | 2960 nM | –
68 | CCC(C)Nc1ccc(NC(C)CC)cc1 (stereo not given) | 610 nM | 980 nM | –
69 | CCOC(=O)C(C)Sc1ncnc2c1nnn2-c1ccc(F)cc1 (stereo not given) | 850 nM and 3120 nM | 3420 nM and 8230 nM | –

Row | Structure (SMILES) | IC50 [1] | IC90 [1] | growth inhibition [2]
70 | CC1CCCN(C(=O)C2CCC(CNc3c(N4CCCCC4)c(=O)c3=O)CC2)C1 (stereo not given) | 11500 nM | > 25000 nM | –
71 | Cc1nc(SCC(=O)NC2CCCCC2)[nH]c(=O)c1C | 340 nM and 1860 nM | 830 nM and 3170 nM | –
72 | CCc1c(C)nc(SCC(=O)NC2CCCC2)[nH]c1=O | 1500 nM | 2850 nM | –
73 | COC(=O)C1CC(=O)N(c2ccc(OCc3ccccc3Cl)cc2)C1 (stereo not given) | 470 nM | 2740 nM | –
74 | CCOc1ccc(-c2cc(C)[n+](CCc3ccc(OC)c(OC)c3)c(-c3ccc(OCC)cc3)c2)cc1 | 600 nM | 900 nM | –
75 | COC(=O)c1cc(=O)n(-c2ccc(F)cc2)c(=Nc2ccc(F)cc2)s1 | 360 nM | 1180 nM | –
76 | O=C(NCCc1ccc(Cl)cc1)c1ccc(CNc2c(N3CCOCC3)c(=O)c2=O)cc1 | 4710 nM | 6880 nM | –
77 | O=C(c1ccc(CNc2c(N3CCOCC3)c(=O)c2=O)cc1)N1CC=C(c2ccccc2)CC1 | 660 nM | 830 nM | –
78 | CC1CCN(C(=O)c2ccc(CNc3c(N4CCCC4)c(=O)c3=O)cc2)CC1 | 5810 nM | 6650 nM | –
79 | CNc1nc(SCc2ccccc2Cl)nc2c1CCCC2 | 1150 nM | 3010 nM | –
80 | COC(=O)CCc1nc2c(C#N)c(-c3ccc(Cl)cc3)ccn2n1 | 2580 nM | 3660 nM | –
81 | CC1CC(C)CN(C(=O)C2CCC(CNc3c(N4CCCCC4)c(=O)c3=O)CC2)C1 (stereo not given) | 7760 nM | > 25000 nM | –
82 | CC[N+](C)(CC)CCCCOc1ccc2c(c1)C(=O)c1cc(OCCCC[N+](C)(CC)CC)ccc1-2 | 1420 nM | 1980 nM | –
83 | Nc1c(C(=O)NC2CCCCC2)nsc1C(=O)OCC(=O)NC1CCCCC1 | 1110 nM | 2460 nM | –
84 | O=C(c1ccc(CNc2c(N3CCCC3)c(=O)c2=O)cc1)N1CCc2ccccc2C1 | 3620 nM | 5790 nM | –
85 | COC(=O)C(C)Sc1ncnc2c1nnn2-c1ccc(F)cc1 (stereo not given) | 1880 nM | 4640 nM | –
86 | COc1cc(NC(=O)C/C(C)=N/NC(=O)c2ccccn2)c(OC)cc1Cl | 1650 nM | 4490 nM | –
87 | O=C(NCC(c1cccs1)N1CCOCC1)c1cc([N+](=O)[O-])cc([N+](=O)[O-])c1 (stereo not given) | 210 nM | 580 nM | –
88 | Cc1nc(SCC(=O)NC2CCCC2)[nH]c(=O)c1C | 7970 nM | 13400 nM | –
89 | c1ccc(/N=C2\N=C(Nc3ccccn3)c3ccccc32)nc1 | 160 nM | 250 nM | –
90 | CCOC(=O)COc1ccc(/C=C2\NC(=S)N(CC)C2=O)cc1 | 1940 nM | 3700 nM | –
91 | CCOc1ccc(NC(=O)CSc2nc(O)c(C)c(=O)n2-c2ccc(F)cc2)cc1 | 18600 nM | > 25000 nM | –
